Measurements from US8304442B2, “Compounds having immunomodulator activity” (Ganial Immunotherapeutics, Inc., priority 2005, dated 2012).

Legend:
IL-10 = conditions: J. Exp Med.; cited from earlier work
[1] = tested on: Peritoneal macrophages (PM); assay: Ex vivo cytokine synthesis of PM isolated from GIT27 treated mice; type: in vivo; conditions: mice treated 7 days i.p. 0.5 mg/mouse or p.o. 2.5 mg/mouse
Procedure: (§1) These experiments were carried out to explore if intraperitoneal (i.p.) or per os (p.o.) treatment of mice with GIT27 could influence the proliferative response of SMNC and the production of IL-1β, IL-10, TNF-α, IFN-γ and MIF from isolated PM and SMNC. PM and SMNC isolated from mice treated in vivo with GIT27 for 7 consecutive days i.p. (0.5 mg/mouse), or p.o. (2.5 mg/mouse), or isolated from control animals that received GIT27 vehicle (Na2HPO4/H2O), or were without any treatment. 24 h after the last GIT27 treatment, PM and SMNC were collected for further in vitro stimulation and analysis.

NF-kB = assay: LPS-induced NF-kB DNA binding in monocyte-derived human macrophages; type: cell-based
MLD-STZ induced diabetes = assay: Diabetes induced by multiple low doses of streptozotocin; type: in vivo, CBA/H mice; conditions: prophylactic
Source text: Both i.p and p.o. treatment with GIT27 suppressed clinical development of diabetes that is induced in CBA/H mice by multiple low doses of streptozotocin. CBA/H mice developed sustained hyperglycaemia over a 2-week period following MLD-STZ injections. As expected, CBA/H control mice treated with the vehicle of GIT27 either i.p. or p.o. develop diabetes with sustained hyperglycaemia developed over a 2-week period following MLD-STZ injections.

LPS-induced lethality = LPS-induced lethality in vivo; design: species or system mice; conditions: for protection from LPS-induced lethality: therapeutic
Procedure: As expected, most of the control mice either untreated or that received the vehicle of GIT27 succumbed to LPS-challenge within 3 days. […] In contrast, the treatment with GIT27 given either po or ip protect the mice from the lethal effects of LPS in a dose-dependent fashion. When given p.o., GIT27 was effective at the dose of 2.5 mg/mouse and dosed out both at 1.5 and 3 mg/mouse.

CAR-induced pleurisy = assay: Carrageenan (CAR) induced pleurisy; type: in vivo, mice; conditions: prophylactic treatment
Source text: GIT27 powerfully suppresses CAR-induced pleurisy in mice All the mice that were challenged with CAR and left untreated or treated with the vehicle of GIT27 developed an acute pleurisy, with production of turbid exudate, PMNs infiltration, and myeloperoxidase (MPO) activity accumulation in the lung.

[2] = tested on: Peritoneal macrophages (PM); assay: In vitro cytokine synthesis by LPS-stimulated peritoneal macrophages; type: cell-based, mice
Procedure: (§2) Peritoneal macrophages (PM) and splenic mononuclear cells (SMNC) were isolated from normal mice, were cultured in nutrient medium and stimulated with LPS and/or ConA, respectively in the absence or presence of GIT27. […] GIT27 had no effect on MIF expression in either cell type, on proliferation of SMNC, and on IL-10 and Interferon (IFN) gamma production by SMNC.

DNB-induced colitis = assay: DNB-induced colitis; type: in vivo, mice
Procedure: Within 5 days after challenge with dinitrobenzene sulfonic acid (DNB), mice develop colitis. The disease severity is evaluated based on a macroscopic score. The vehicle-treated control mice and untreated mice developed colitis with a predictable and progressive increase in inflammation and body weight loss. […] The colons of the control mice and of the GIT27 treated mice were removed, sectioned, fixed, and stained with hematoxylin and eosin. […] The tissue myeloperoxidase activity is a well established marker to assess the inflammatory cell (mainly neutrophils) infiltration. […] We counted an average of 8,9±1.2 (means±SD) cells/high power field in the of DNB-induced animals, whereas there were only 3.37±0.8 cells/high-power field in DNB-induced animals pretreated with GIT27 (p<0.0001).

type II CIA = assay: Type II collagen-induced arthritis (CIA); type: in vivo, mice; conditions: therapeutic
Procedure: To evaluate the therapeutic effect of GIT27 in arthritis, mice developing type II CIA were treated for 10 consecutive days. […] Control mice were treated under the same experimental regime with the vehicle of GIT27.
The vehicle-treated control mice rapidly develop full clinical signs of type II CIA with a progressive increment of the arthritic clinical scores and severe hind paws oedema. This clinical picture was reflected by severe inflammatory arthritis as indicated by the high the progressive increment of the arthritic histological scores determinated by histological evaluation.

[3] = tested on: splenic mononuclear cells (SMNC); assay: Ex vivo proliferation and cytokine synthesis of SMNC isolated from GIT27 treated mice; type: in vivo; conditions: mice treated 7 days i.p. 0.5 mg/mouse or p.o. 2.5 mg/mouse
Procedure: as §1

[4] = tested on: oxazolone-induced hypersensitivity; assay: Oxazolone-induced dermatitis; type: in vivo, mice
Procedure: While the first application of oxazolone sensitizes the mice, the second elicits the hypersensitivity reaction. The dermatitis manifestations appear 18 hours after the second epicutaneous exposure to oxazolone, both ear thickness and weight markedly and progressively increase. The in vivo studies to assess the pharmacological activity of GIT27, were planned with two set of experimental. In the first set, the mice were treated during or before the sensitization phase. […] To evaluate the effects of GIT27 on the elicitation phase of oxazolone-induced dermatitis, the treatment with GIT27 was given one hour after the second epicutancous exposure to oxazolone, when start the progression of the immunoinflammatory responses.

[5] = tested on: splenic mononuclear cells (SMNC); assay: In vitro proliferation and cytokine synthesis by ConA-stimulated splenic mononuclear cells; type: cell-based, mice
Procedure: as §2

[6] = 10 consecutive days from clinical score ≧1, vs vehicle
[7] = treated during or before the sensitization phase

Cyclosporin A
IL-10 synthesis in vitro (IL-10): down-regulates

O=C(O)CC1CC(c2ccccc2)=NO1 (centres unmarked) [GIT27, 3-phenyl-4,5-dihydro-5-isoxazoleacetic acid]
MIF expression by PM upon mitogenic stimulation [1]: normal pattern
synthesis of IL-1β by PM [1]: impaired synthesis
synthesis of IL-10 by PM [1]: impaired synthesis
synthesis of TNF α by PM [1]: impaired synthesis
DNA binding of NF-kB induced by LPS (NF-kB): powerfully inhibits in a dose-dependent fashion
diabetogenic effect of MLD-STZ (hyperglycaemia) (MLD-STZ induced diabetes; i.p.): significantly reduced
development of hyperglycaemia (MLD-STZ induced diabetes; p.o.): significantly reducing
protection from LPS-induced lethality (LPS-induced lethality; i.p., between 0.25 and 0.5 mg/mouse): dose-dependent protection
LPS-induced lethality (LPS-induced lethality; p.o. and i.p., prophylactic regime (-24 and -1 hour prior to LPS)): significantly reducing
protection from LPS-induced lethality (LPS-induced lethality; p.o., 2.5 mg/mouse): effective
protection from LPS-induced lethality (LPS-induced lethality; p.o., 1.5 and 3 mg/mouse): dosed out
LPS-induced lethality (LPS-induced lethality; therapeutic administration, overall): powerfully counteracts
PMNs infiltration (CAR-induced pleurisy): reduced
myeloperoxidase (MPO) activity accumulation in the lung (CAR-induced pleurisy): reduced
production of exudate (CAR-induced pleurisy): reduced
overall effect on CAR-induced pleurisy (CAR-induced pleurisy; comparable to antibody against mouse TNF-alpha): powerful protective effect
MIF expression in PM [2]: no effect
production of IL-1β by PM ([2]; LPS stimulated): inhibited
production of IL-10 by PM ([2]; LPS stimulated): inhibited
production of TNF α by PM ([2]; LPS stimulated): markedly inhibited
inflammatory cell infiltration (colon myeloperoxidase activity) (DNB-induced colitis; 5 days after induction of colitis, p<0.0001): significant reduction
infiltrating neutrophils in histology samples (DNB-induced colitis; means±SD, DNB-induced animals pretreated, p<0.0001): 3.37±0.8 cells/high-power field
tissue damage (colon histology) (DNB-induced colitis; treated before DNB-induced colitis, vs control mice): significantly reduced
weight loss (DNB-induced colitis; vs control groups): significant reduction
increase in colon weight (DNB-induced colitis; vs controls): significantly lower
progression of inflammatory colitis (macroscopic score) (DNB-induced colitis; vs controls, p<0.001): significantly attenuated
clinical arthritic scores (type II CIA; [6]): lower
histological arthritic scores (type II CIA; [6]): lower
progression of the arthritic disease (type II CIA; 10 consecutive days, potency comparable to dexamethasone): significantly slower progression
IFN-γ production by SMNC upon stimulation [3]: normal capacity to produce
IL-1β production by SMNC upon stimulation [3]: normal capacity to produce
IL-10 production by SMNC upon stimulation [3]: normal capacity to produce
MIF expression by SMNC [3]: normal expression pattern
TNF-α production by SMNC upon stimulation [3]: normal capacity to produce
proliferation of SMNC [3]: normal capacity to proliferate
ear thickness ([4]; elicitation phase: treated one hour after second exposure to oxazolone): significant decrease
increment of ear thickness [4, 7]: significantly suppressed
increment of ear weight [4, 7]: significantly suppressed
MIF expression in SMNC [5]: no effect
IL-10 production by SMNC ([5]; ConA stimulated): no effect
Interferon (IFN) gamma production by SMNC ([5]; ConA stimulated): no effect
production of TNF α by SMNC ([5]; ConA stimulated): markedly inhibited
proliferation of SMNC ([5]; ConA stimulated): no effect
